Reference: ChEMBL document CHEMBL4507273 (2021)
pKi: −log10 of the molar value.

What was measured:
[1] = biological target: T1, 5-hydroxytryptamine receptor 5A (Homo sapiens, UniProt P47898); conditions: Compound concentration 10.0 uM
[2] = biological target: Dual specificity protein kinase CLK4 (Homo sapiens) (UniProt Q9HAZ1); conditions: Compound concentration 1000.0 nM
[3] = biological target: Muscarinic acetylcholine receptor M2 (Homo sapiens, UniProt P08172); assay: GPCRScan assay: inhibition of M2; set-up: radioligand conc. used [nm] 0.2 – 1.0, parental cells stable CHO
[4] = system: Epidermal growth factor receptor (Homo sapiens), P00533 [T790M]; conditions: Compound concentration 1000.0 nM
[5] = biological target: Ribosomal protein S6 kinase alpha-1 (Homo sapiens) (UniProt Q15418); conditions: Compound concentration 1000.0 nM
[6] = biological target: Serine/threonine-protein kinase 17A (Homo sapiens) (UniProt Q9UEE5); conditions: Compound concentration 1000.0 nM
[7] = biological target: Epithelial discoidin domain-containing receptor 1 (Homo sapiens) (UniProt Q08345); conditions: Compound concentration 1000.0 nM
[8] = biological target: Serine/threonine-protein kinase 26 (Homo sapiens) (UniProt Q9P289); conditions: Compound concentration 1000.0 nM
[9] = biological target: Aurora kinase B (Homo sapiens) (UniProt Q96GD4); conditions: Compound concentration 1000.0 nM
[10] = biological target: 5-hydroxytryptamine receptor 7 (Homo sapiens, UniProt P34969); assay: GPCRScan assay: inhibition of 5-HT7A; set-up: radioligand conc. used [nm] 5.0 – 6.0, parental cells Stable HEK; conditions: for pKi: read-out: Ki
[11] = biological target: Phosphatidylinositol 4-phosphate 3-kinase C2 domain-containing subunit beta (Homo sapiens) (UniProt O00750); conditions: Compound concentration 1000.0 nM
[12] = biological target: Ribosomal protein S6 kinase alpha-4 (Homo sapiens) (UniProt O75676); conditions: Compound concentration 1000.0 nM
[13] = biological target: Phosphatidylinositol 5-phosphate 4-kinase type-2 gamma (Homo sapiens) (UniProt Q8TBX8); conditions: Compound concentration 1000.0 nM
[14] = biological target: Myosin-IIIb (Homo sapiens) (UniProt Q8WXR4); conditions: Compound concentration 1000.0 nM
[15] = biological target: Serine/threonine-protein kinase Nek9 (Homo sapiens) (UniProt Q8TD19); conditions: Compound concentration 1000.0 nM
[16] = biological target: Serine/threonine-protein kinase SIK3 (Homo sapiens) (UniProt Q9Y2K2); conditions: Compound concentration 1000.0 nM
[17] = biological target: Mitogen-activated protein kinase 13 (Homo sapiens) (UniProt O15264); conditions: Compound concentration 1000.0 nM
[18] = biological target: T2, Muscarinic acetylcholine receptor M1 (Homo sapiens) (UniProt P11229); conditions: Compound concentration 10.0 uM
T2 sequence (whole entry): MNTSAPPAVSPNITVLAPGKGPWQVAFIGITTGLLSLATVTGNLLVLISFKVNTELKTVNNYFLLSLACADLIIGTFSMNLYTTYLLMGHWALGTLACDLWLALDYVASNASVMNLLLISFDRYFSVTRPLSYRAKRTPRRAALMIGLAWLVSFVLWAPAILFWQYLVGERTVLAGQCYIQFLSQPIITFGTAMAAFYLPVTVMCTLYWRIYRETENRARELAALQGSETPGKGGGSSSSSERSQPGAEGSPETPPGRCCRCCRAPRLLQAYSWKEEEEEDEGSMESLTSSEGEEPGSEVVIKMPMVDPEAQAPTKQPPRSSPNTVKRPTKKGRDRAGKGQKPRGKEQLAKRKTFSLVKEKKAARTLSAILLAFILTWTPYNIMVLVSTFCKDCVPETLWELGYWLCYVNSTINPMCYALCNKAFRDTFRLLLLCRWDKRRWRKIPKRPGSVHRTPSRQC

[19] = biological target: Serine/threonine-protein kinase MARK2 (Homo sapiens) (UniProt Q7KZI7); conditions: Compound concentration 1000.0 nM
[20] = biological target: Inhibitor of nuclear factor kappa-B kinase subunit epsilon (Homo sapiens) (UniProt Q14164); conditions: Compound concentration 1000.0 nM
[21] = biological target: cAMP-dependent protein kinase catalytic subunit beta (Homo sapiens) (UniProt P22694); conditions: Compound concentration 1000.0 nM
[22] = biological target: cAMP-dependent protein kinase catalytic subunit alpha (Homo sapiens) (UniProt P17612); conditions: Compound concentration 1000.0 nM
[23] = biological target: Epidermal growth factor receptor (Homo sapiens, UniProt P00533); conditions: Compound concentration 1000.0 nM
[24] = biological target: Glycogen synthase kinase-3 alpha (Homo sapiens) (UniProt P49840); conditions: Compound concentration 1000.0 nM
[25] = biological target: T1, 5-hydroxytryptamine receptor 5A; assay: GPCRScan assay: inhibition of 5-HT5A; set-up: radioligand conc. used [nm] 2.0 - 3.3, parental cells Flp-In CHO; conditions: for pKi: read-out: Ki; for Ki: read-out: pKi (converted)
[26] = system: Epidermal growth factor receptor (Homo sapiens), P00533 [L858R,T790M]; conditions: Compound concentration 1000.0 nM
[27] = biological target: Activin receptor type-1B (Homo sapiens) (UniProt P36896); conditions: Compound concentration 1000.0 nM
[28] = biological target: Serine/threonine-protein kinase TAO2 (Homo sapiens) (UniProt Q9UL54); conditions: Compound concentration 1000.0 nM
[29] = biological target: Cyclin-dependent kinase 5 (Homo sapiens) (UniProt Q00535); conditions: Compound concentration 1000.0 nM
[30] = biological target: Serine/threonine-protein kinase PLK2 (Homo sapiens) (UniProt Q9NYY3); conditions: Compound concentration 1000.0 nM
[31] = system: Phosphatidylinositol 4,5-bisphosphate 3-kinase catalytic subunit alpha isoform (Homo sapiens), P42336 [H1047L]; conditions: Compound concentration 1000.0 nM
[32] = biological target: RAC-alpha serine/threonine-protein kinase (Homo sapiens) (UniProt P31749); conditions: Compound concentration 1000.0 nM
[33] = biological target: Serine/threonine-protein kinase PAK 5 (Homo sapiens) (UniProt Q9P286); conditions: Compound concentration 1000.0 nM
[34] = biological target: Ephrin type-B receptor 6 (Homo sapiens) (UniProt O15197); conditions: Compound concentration 1000.0 nM
[35] = biological target: Serine/threonine-protein kinase SIK1 (Homo sapiens) (UniProt P57059); conditions: Compound concentration 1000.0 nM
[36] = biological target: Tyrosine-protein kinase Yes (Homo sapiens) (UniProt P07947); conditions: Compound concentration 1000.0 nM
[37] = biological target: Proto-oncogene tyrosine-protein kinase receptor Ret (Homo sapiens) (UniProt P07949); conditions: Compound concentration 1000.0 nM
[38] = biological target: Dual specificity tyrosine-phosphorylation-regulated kinase 2 (Homo sapiens) (UniProt Q92630); conditions: Compound concentration 1000.0 nM
[39] = biological target: 5-hydroxytryptamine receptor 2A (Homo sapiens, UniProt P28223); conditions: Compound concentration 10.0 uM

5-hydroxytryptamine receptor 7, sequence (P34969 whole entry, the tested form may be a part): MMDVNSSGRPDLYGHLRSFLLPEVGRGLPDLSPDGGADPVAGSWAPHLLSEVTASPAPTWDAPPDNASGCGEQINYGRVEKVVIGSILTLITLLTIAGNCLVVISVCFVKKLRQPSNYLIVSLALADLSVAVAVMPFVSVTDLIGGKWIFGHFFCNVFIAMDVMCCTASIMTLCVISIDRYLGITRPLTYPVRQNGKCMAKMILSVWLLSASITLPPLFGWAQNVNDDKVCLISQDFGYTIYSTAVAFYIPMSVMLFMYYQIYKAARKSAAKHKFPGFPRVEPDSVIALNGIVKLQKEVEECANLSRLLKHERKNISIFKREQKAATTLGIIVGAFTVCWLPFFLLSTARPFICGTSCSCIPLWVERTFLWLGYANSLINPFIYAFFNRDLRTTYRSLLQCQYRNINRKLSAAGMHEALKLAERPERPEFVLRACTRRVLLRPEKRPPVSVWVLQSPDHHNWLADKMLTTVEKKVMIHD
T1 sequence (P47898 whole entry): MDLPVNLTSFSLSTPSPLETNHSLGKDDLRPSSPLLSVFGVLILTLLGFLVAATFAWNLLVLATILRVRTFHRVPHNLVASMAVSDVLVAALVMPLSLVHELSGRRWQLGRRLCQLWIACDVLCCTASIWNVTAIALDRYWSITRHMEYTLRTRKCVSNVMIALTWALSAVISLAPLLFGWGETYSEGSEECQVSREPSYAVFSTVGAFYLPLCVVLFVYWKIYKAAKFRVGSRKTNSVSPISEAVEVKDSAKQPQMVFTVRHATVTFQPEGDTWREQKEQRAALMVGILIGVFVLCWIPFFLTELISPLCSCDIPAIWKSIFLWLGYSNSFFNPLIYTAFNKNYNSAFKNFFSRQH
Ribosomal protein S6 kinase alpha-1 (Homo sapiens), sequence (Q15418 whole entry): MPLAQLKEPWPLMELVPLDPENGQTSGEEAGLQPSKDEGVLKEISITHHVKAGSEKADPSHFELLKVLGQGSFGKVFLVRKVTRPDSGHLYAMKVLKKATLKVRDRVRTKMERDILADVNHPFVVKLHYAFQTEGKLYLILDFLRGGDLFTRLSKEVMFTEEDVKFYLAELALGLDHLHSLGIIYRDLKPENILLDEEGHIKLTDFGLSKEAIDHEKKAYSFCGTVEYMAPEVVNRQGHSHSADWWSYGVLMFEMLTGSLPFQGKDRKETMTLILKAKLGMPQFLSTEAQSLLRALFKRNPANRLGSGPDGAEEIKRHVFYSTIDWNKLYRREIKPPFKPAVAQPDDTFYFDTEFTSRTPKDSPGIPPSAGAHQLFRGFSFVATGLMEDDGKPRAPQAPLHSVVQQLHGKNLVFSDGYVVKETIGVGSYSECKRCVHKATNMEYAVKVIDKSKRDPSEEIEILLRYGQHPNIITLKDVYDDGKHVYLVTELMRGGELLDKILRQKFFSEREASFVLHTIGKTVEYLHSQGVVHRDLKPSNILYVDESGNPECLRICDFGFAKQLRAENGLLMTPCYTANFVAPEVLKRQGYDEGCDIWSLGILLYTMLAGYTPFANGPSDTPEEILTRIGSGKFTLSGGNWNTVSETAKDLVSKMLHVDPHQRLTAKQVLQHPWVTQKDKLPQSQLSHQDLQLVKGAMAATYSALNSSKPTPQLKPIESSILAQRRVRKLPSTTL
Serine/threonine-protein kinase 26 (Homo sapiens), sequence (Q9P289 2-416 limits assumed): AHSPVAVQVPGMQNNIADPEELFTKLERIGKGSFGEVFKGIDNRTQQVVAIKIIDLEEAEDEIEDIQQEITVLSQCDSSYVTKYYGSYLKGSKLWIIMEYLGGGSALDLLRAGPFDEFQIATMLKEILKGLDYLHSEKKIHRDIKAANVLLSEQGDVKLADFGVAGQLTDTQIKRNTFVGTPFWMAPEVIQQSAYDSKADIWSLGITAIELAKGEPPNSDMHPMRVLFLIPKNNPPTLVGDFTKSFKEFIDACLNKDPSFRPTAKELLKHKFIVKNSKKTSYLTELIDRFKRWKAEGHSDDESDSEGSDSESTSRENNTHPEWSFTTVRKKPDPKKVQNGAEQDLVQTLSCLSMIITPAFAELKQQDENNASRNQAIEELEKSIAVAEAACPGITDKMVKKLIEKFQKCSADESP
Muscarinic acetylcholine receptor M2, sequence (P08172 whole entry): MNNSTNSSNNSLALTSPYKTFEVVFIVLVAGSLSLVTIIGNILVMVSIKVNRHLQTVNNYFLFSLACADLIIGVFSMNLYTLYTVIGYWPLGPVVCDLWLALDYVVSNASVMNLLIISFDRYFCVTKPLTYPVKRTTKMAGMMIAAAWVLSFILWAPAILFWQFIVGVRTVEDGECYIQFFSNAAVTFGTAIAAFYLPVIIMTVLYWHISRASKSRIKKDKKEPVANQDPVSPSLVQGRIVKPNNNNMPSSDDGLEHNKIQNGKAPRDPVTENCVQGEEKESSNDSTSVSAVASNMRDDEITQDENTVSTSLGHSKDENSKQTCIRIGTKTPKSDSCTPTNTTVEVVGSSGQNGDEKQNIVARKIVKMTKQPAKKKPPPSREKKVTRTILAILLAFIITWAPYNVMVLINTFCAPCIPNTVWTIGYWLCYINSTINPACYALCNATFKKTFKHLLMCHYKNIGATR
Cyclin-dependent kinase 5 (Homo sapiens), sequence (Q00535 whole entry, looked up): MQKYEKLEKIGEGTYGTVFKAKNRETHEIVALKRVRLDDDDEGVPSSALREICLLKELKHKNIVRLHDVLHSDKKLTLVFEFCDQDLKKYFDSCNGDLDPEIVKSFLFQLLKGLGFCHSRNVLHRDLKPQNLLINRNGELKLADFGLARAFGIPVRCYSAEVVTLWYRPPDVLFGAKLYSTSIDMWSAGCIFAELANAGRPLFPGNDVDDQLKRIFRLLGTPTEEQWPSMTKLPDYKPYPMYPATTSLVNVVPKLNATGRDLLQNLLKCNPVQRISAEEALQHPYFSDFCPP
Myosin-IIIb (Homo sapiens), sequence (Q8WXR4 whole entry): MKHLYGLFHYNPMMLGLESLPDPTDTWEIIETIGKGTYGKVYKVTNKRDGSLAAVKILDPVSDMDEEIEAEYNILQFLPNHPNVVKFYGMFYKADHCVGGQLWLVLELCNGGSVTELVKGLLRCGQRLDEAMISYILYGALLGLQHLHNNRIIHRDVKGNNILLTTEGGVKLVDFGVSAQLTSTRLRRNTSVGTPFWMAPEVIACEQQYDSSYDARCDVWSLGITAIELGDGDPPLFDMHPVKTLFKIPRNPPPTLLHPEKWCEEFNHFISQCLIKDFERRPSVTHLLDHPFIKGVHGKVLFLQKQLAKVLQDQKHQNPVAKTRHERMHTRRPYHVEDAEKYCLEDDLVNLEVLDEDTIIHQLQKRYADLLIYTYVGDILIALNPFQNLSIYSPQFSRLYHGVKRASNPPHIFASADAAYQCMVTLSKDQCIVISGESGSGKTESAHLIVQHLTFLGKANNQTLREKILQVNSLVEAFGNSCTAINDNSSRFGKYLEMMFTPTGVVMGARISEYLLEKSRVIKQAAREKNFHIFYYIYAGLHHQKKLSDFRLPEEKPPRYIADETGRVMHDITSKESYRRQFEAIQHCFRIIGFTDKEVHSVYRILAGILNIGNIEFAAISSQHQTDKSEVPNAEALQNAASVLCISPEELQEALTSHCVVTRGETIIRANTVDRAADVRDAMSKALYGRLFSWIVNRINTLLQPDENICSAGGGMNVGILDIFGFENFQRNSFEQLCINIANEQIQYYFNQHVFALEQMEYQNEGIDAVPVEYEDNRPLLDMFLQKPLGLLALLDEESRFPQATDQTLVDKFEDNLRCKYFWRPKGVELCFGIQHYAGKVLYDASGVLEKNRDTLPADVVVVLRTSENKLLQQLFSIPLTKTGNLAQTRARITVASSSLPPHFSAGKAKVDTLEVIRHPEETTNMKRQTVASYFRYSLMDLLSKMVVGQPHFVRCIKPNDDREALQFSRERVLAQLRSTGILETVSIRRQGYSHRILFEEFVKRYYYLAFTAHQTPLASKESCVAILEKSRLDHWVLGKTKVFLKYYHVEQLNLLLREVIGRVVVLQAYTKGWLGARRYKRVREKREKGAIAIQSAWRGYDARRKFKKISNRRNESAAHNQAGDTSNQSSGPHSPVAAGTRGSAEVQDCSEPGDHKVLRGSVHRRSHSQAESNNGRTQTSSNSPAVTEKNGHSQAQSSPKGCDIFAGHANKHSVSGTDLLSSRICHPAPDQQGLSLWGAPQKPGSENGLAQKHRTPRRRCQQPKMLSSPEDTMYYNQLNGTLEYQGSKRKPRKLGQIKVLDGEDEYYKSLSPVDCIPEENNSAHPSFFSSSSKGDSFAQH
Serine/threonine-protein kinase PLK2 (Homo sapiens), sequence (Q9NYY3 whole entry, looked up, canonical isoform): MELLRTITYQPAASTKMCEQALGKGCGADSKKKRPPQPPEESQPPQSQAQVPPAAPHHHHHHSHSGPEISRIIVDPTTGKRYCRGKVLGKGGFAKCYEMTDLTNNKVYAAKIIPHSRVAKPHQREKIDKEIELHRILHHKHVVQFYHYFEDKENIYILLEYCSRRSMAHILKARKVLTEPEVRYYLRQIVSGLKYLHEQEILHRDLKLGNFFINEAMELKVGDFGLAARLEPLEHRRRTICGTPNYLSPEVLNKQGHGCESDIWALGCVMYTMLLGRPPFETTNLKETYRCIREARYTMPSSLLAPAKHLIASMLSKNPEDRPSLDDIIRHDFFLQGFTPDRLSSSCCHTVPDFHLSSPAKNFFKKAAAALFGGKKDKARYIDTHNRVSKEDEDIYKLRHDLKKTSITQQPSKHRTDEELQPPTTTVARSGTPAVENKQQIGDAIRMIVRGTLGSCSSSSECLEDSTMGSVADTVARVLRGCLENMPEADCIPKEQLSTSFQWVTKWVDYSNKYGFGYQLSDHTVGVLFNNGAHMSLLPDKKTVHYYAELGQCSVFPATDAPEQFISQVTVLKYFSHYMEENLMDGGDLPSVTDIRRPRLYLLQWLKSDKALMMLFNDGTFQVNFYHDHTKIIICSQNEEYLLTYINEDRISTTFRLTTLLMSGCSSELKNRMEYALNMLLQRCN

CNCc1ccccc1-c1csc([C@@H](C)Nc2nc(C)nc3cc(OC)c(OC)cc23)c1 [BAY-293]
inhibition [1]: 68.5%
residual activity [2]: 100%
pKi [3]: 6.29
residual activity [4]: 68%
residual activity [5]: 76%
residual activity [6]: 100%
residual activity [7]: 100%
residual activity [8]: 99%
residual activity [9]: 77%
pKi [10]: 5.76
Ki ([10]; read-out: pKi (converted)): 1700 nM
residual activity [11]: 86%
residual activity [12]: 100%
residual activity [13]: 92%
residual activity [14]: 47%
residual activity [15]: 100%
residual activity [16]: 90%
residual activity [17]: 100%
inhibition [18]: 88.8%
residual activity [19]: 99%
residual activity [20]: 71%
residual activity [21]: 100%
residual activity [22]: 100%
residual activity [23]: 90%
residual activity [24]: 100%
pKi [25]: 5.59
Ki [25]: 2140 nM
residual activity [26]: 93%
residual activity [27]: 91%
residual activity [28]: 86%
residual activity [29]: 78%
residual activity [30]: 82%
residual activity [31]: 95%
residual activity [32]: 100%
residual activity [33]: 95%
residual activity [34]: 98%
residual activity [35]: 91%
residual activity [36]: 100%
residual activity [37]: 86%
residual activity [38]: 92%
inhibition [39]: 98.5%

CNCc1ccccc1-c1csc([C@H](C)Nc2nc(C)nc3cc(OC)c(OC)cc23)c1 [BAY-294]
inhibition [1]: 78.1%
residual activity [2]: 100%
pKi [3]: 5.83
residual activity [4]: 76%
residual activity [5]: 93%
residual activity [6]: 100%
residual activity [7]: 100%
residual activity [8]: 97%
residual activity [9]: 99%
pKi [10]: 6.16
residual activity [11]: 100%
residual activity [12]: 100%
residual activity [13]: 100%
residual activity [14]: 87%
residual activity [15]: 100%
residual activity [16]: 78%
residual activity [17]: 100%
inhibition [18]: 89.1%
residual activity [19]: 100%
residual activity [20]: 85%
residual activity [21]: 100%
residual activity [22]: 100%
residual activity [23]: 100%
residual activity [24]: 100%
pKi [25]: 5.98
Ki [25]: 977 nM
residual activity [26]: 87%
residual activity [27]: 100%
residual activity [28]: 90%
residual activity [29]: 98%
residual activity [30]: 83%
residual activity [31]: 88%
residual activity [32]: 100%
residual activity [33]: 100%
residual activity [34]: 87%
residual activity [35]: 100%
residual activity [36]: 100%
residual activity [37]: 100%
residual activity [38]: 96%
inhibition [39]: 99.2%
